Values quoted from earlier work in US8636985B2, “Functional formulation in chewing gum” (priority 2010, dated 2014).

Conditions: several experimental models

For `CC1=C(CO)C(=O)O[C@@H]([C@@H](C)[C@H]2CC[C@H]3[C@@H]4C[C@H]5O[C@]56[C@@H](O)C=CC(=O)[C@]6(C)[C@H]4CC[C@]23C)C1` [Withaferin A], the “anti-inflammatory and antiarthritic properties” value is listed as “anti-inflammatory and antiarthritic properties”.
